Assay results from US12414559B2, “Mixtures and compositions comprising 5-fluoro-4-imino-3-methyl-1-tosyl-3,4-dihydropyrimidin-2-one, and methods of use thereof” (Adama Makhteshim Ltd., priority 2018, dated 2025).

Experiment: Chemical stability on storage: concentration / degradation of compound of Formula I in the composition
Format: physicochemical
Details: after 8 weeks of storage at 40° C.
Text: As used herein, the term “stable” when used in connection with chemical stability, e.g, chemically stable, means that the composition meets the chemical stability standards set forth by the Food and Agriculture Organization of the United Nations (FAO) in the Manual on Development and Use of FAO and WHO Specification for Pesticides (First Edition—Third Revision) (the “FAO/WHO Manual”) (available at http://www.fao.gov/agriculture/crops/thematic-sitemap/theme/pests/jmps/manual/en/), the entire content of which is hereby incorporate by reference into the subject application. […] The amount of degradation permitted before the degradation is considered to be significant depends on the concentration of the active ingredients in the composition.
The physical and chemical stability of composition of Example were tested under various conditions including CIPAC conditions.

Cc1ccc(S(=O)(=O)n2cc(F)c(=N)n(C)c2=O)cc1 [compound of Formula I, 5-fluoro-4-imino-3-methyl-1-tosyl-3,4-dihydropyrimidin-2(1H)-one]
degradation of the compound of Formula I (with Attagel 50 (0.5% by weight) and Bentone SD-1 (0.5% by weight)): 4%
degradation of the compound of Formula I (without Attagel 50 and Bentone SD-1): 7-8%
